SMILES strings stand for the structures. Read-outs that look alike come from different tables or passages of the source. Starred links: 1 amine or outer side, 2 acyl side, 3 side chain; linkers in the order of their positions; H or OH if unused. Positions of bridges follow the written chain, without caps; N, C: chain ends. Non-standard residues stand in square brackets, D forms with d. Residues, ends and D or L forms follow the SMILES beside them. Chains are numbered I, II in the order given. *: point of attachment. isoGln = NC(=O)[C@H](CCC(=O)[*:2])N[*:1]; εLys = N[C@@H](CCCCN[*:1])C(=O)[*:2]; Orn = NCCC[C@H](N)C(=O)O; Dab = NCC[C@H](N)C(=O)O; PhAc = O=C(Cc1ccccc1)*

Here are results for eleven compounds from patent publication US20160122386A1, “V1A RECEPTOR AGONISTS” (FERRING B.V., priority 2014, published 2016).

The assay addresses T1, human V1aR (Homo sapiens, UniProt P37288).
T1 construct: expressed in transfected cells
As to the kind of experiment: Agonist activity at vasopressin V1a receptors, cell-based FLIPR calcium assay. Conditions: for Emax: read-out: Efficacy Avg. (%). The protocol: Efficacy (% MPE) is also determined as the percentage of maximal possible effect. This agonist assay utilizes cells from a stable cell line (HEK-flpin) expressing the vasopressin V1a receptor. Intracellular calcium increase in response to agonist is measured through real-time fluorescence of an intracellular calcium-sensitive dye. Cells are exposed to varying concentrations of test agonist compounds whereupon release of intracellular calcium is measured to determine the agonist potency and efficacy.
The cell line stably expresses the lacZ-Zeocin™ fusion gene and is designed for use with the Flp-In™ expression vector containing the gene of interest and the Flp recombinase expression plasmid, pOG44. The cell line contains a single integrated Flp Recombination Target (FRT) site from pFRT/lacZeo or pFRT/lacZeo2. To generate the HEK-flpin cell line stably expressing the human V1aR, the cells were co-transfected with the Flp-In™ expression vector containing the gene of interest (pcDNA5/FRT-hV1aR) and the Flp recombinase expression plasmid pOG44. Flp recombinase mediates insertion of the Flp-In™ expression vector into the genome at the integrated FRT site through site-specific DNA recombination. Stable cell lines expressing the hV1aR from the Flp-In™ expression vector can be generated by selection using hygromycin B. See Life Technologies/Invitrogen manual, Growth and Maintenance of Flp-In™ Cell Lines, Version E, published Feb.
Efficacy of this compound was set to be 100%. A stock solution of 5 mM was made up in DMSO and stored at −20° C.
HEK-flpin-hV1aR, cmcqV1aR, dV1aR and pV1aR cells were maintained in DMEM containing 10% (v/v) FBS-HI, 4 mM GlutaMAX™-I, 25 μg/mL Hygromycin B at 37° C. under 5% CO2 in a humidified atmosphere. Subculture was achieved by splitting semi-confluent cultures 1:3 to 1:6.
All compounds were made up in 100% DMSO at 10 mM stock concentrations and stored at −20° C. The compounds were allowed to thaw just before the assay. […] Typical dilution procedure of 10× final assay concentration involved a 1:100 top dilution (e.g., 2 μl Stock into 198 μl dilution medium) followed by half-log serial dilutions (e.g., 25.3 μl into 54.7 μl dilution medium supplemented with 1% DMSO (v/v)). (Dilution media consisted of phenol-red free DMEM containing 10% FBS-HI, 4 mM GlutaMAX™-I). […] The final DMSO concentration in the assay was 0.1%.
Loading Buffer was prepared by dissolving 1 vial of Calcium 4 Assay reagent in 100 mL of 1× HBSS-20 mM Hepes buffer.
The cells were loaded with Loading Buffer as follows. Cell plates were removed from the incubator and 20 μl of Loading Buffer containing probenecid (2.5 mM) was added to each well. The cells were incubated for 1 hr at 37° C. under 5% CO2 in a humidified atmosphere. The calcium image was obtained as follows.
The cell plates were transferred to FLIPR Tetra, along with a 384 well V-bottom plate pre-loaded with half-log concentrations of test compounds at 10× final test concentrations. The remaining steps of the assay were carried forward by FLIPR Tetra. A baseline reading was taken at 1-second (s) intervals for 5s followed by the addition of 5 μl of 10× compounds (test, reference, or Blank). The agonist-induced fluorescence signal was then measured for 180 s with initial 120 readings at 1-second intervals followed by 20 readings at 3-second intervals. Overall, each well in the FLIPR assay was composed of the following components in a total volume of 50 μl: 20 μl cells; 20 μl Calcium 4 Loading Buffer; […] 10× test or reference compound.

Where [1] appears, read: HEK-flpin cells stably expressing hV1aR, intracellular calcium fluorescence, averaged, read-out: EC50 (Avg).

T1 sequence (P37288 whole entry): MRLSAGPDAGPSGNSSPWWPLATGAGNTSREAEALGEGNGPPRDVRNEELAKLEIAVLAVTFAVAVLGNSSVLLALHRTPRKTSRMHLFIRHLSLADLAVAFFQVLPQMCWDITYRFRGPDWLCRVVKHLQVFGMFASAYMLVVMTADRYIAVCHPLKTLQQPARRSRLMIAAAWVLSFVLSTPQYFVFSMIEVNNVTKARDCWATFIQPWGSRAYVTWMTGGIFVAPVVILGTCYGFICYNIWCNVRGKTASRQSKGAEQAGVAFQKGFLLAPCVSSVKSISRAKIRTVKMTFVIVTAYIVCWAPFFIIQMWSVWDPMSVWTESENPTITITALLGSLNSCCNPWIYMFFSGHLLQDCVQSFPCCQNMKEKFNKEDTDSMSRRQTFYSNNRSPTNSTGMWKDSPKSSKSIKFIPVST

Take `CC[C@H](C)[C@@H]1NC(=O)[C@H](Cc2ccccc2)NC(=O)[C@@H](N)CSSC[C@@H](C(=O)N2CCC[C@H]2C(=O)N[C@@H](CCCNCCCCCNC(=O)CC[C@H](NC(=O)[C@H](CCCNC(=N)N)NC(=O)[C@@H]2CCCN2C(=O)[C@H](Cc2c[nH]cn2)NC(=O)[C@H](CC(N)=O)NC(=O)[C@H](CCC(N)=O)NC(=O)[C@H](Cc2ccccc2)NC(=O)[C@@H](Cc2ccc(OC)cc2)NC(=O)Cc2ccccc2)C(N)=O)C(=O)NCC(N)=O)NC(=O)[C@H](CC(N)=O)NC(=O)[C@H](CCC(N)=O)NC1=O` [Compound 13]: the concentration giving a half-maximal response (EC50) came to 2.4 nM and the Emax came to 48%.
The corresponding values for `CC[C@H](C)[C@@H]1NC(=O)[C@H](Cc2ccccc2)NC(=O)[C@@H](N)CSSC[C@@H](C(=O)N2CCC[C@H]2C(=O)N[C@@H](CCCNCCCCCNC(=O)CC[C@H](NC(=O)[C@H](CCCNC(=N)N)NC(=O)[C@@H]2CCCN2C(=O)[C@H](CCC(N)=O)NC(=O)[C@H](CC(N)=O)NC(=O)[C@H](CCC(N)=O)NC(=O)[C@H](Cc2ccccc2)NC(=O)[C@@H](Cc2ccc(OC)cc2)NC(=O)Cc2ccccc2)C(N)=O)C(=O)NCC(N)=O)NC(=O)[C@H](CC(N)=O)NC(=O)[C@H](CCC(N)=O)NC1=O` [Compound 14] are 2.1 nM and 37%.
The corresponding values for `CC[C@H](C)[C@@H]1NC(=O)[C@H](Cc2ccccc2)NC(=O)[C@@H](N)CSSC[C@@H](C(=O)N2CCC[C@H]2C(=O)N[C@@H](CCCNCCCCCNC(=O)CC[C@H](NC(=O)[C@H](CCCNC(=N)N)NC(=O)[C@@H]2CCCN2C(=O)[C@H](CCCNC(N)=O)NC(=O)[C@H](CC(N)=O)NC(=O)[C@H](CCC(N)=O)NC(=O)[C@H](Cc2ccccc2)NC(=O)[C@@H](Cc2ccc(OC)cc2)NC(=O)Cc2ccccc2)C(N)=O)C(=O)NCC(N)=O)NC(=O)[C@H](CC(N)=O)NC(=O)[C@H](CCC(N)=O)NC1=O` [Compound 15] are 2.3 nM and 44%.
With `CC[C@H](C)[C@@H]1NC(=O)[C@H](Cc2ccccc2)NC(=O)[C@@H](N)CSSC[C@@H](C(=O)N2CCC[C@H]2C(=O)N[C@@H](CCCNCCCCCNC(=O)CC[C@H](NC(=O)[C@H](CCCNC(=N)N)NC(=O)[C@@H]2CCCN2C(=O)[C@H](CCN)NC(=O)[C@H](CC(N)=O)NC(=O)[C@H](CCC(N)=O)NC(=O)[C@H](Cc2ccccc2)NC(=O)[C@@H](Cc2ccc(OC)cc2)NC(=O)Cc2ccccc2)C(N)=O)C(=O)NCC(N)=O)NC(=O)[C@H](CC(N)=O)NC(=O)[C@H](CCC(N)=O)NC1=O` [Compound 16], the EC50 was determined as 2.4 nM and the Emax amounted to 46%.
Consider `CCCCCCC(=O)N[C@H](Cc1ccc(OC)cc1)C(=O)N[C@@H](Cc1ccccc1)C(=O)N[C@@H](CCC(N)=O)C(=O)N[C@@H](CC(N)=O)C(=O)N[C@@H](C)C(=O)N1CCC[C@H]1C(=O)N[C@@H](CCCNC(=N)N)C(=O)N[C@@H](CCC(=O)NCCCCCCNCCC[C@H](NC(=O)[C@@H]1CCCN1C(=O)[C@@H]1CSSC[C@H](N)C(=O)N[C@@H](Cc2ccccc2)C(=O)N[C@@H]([C@@H](C)CC)C(=O)N[C@@H](CCC(N)=O)C(=O)N[C@@H](CC(N)=O)C(=O)N1)C(=O)NCC(N)=O)C(N)=O` [Compound 17], for which the Emax is 62%. Under setting [1], the concentration giving a half-maximal response (EC50) came out at 2.9 nM.
For `CC[C@H](C)[C@@H]1NC(=O)[C@H](Cc2ccccc2)NC(=O)[C@@H](N)CSSC[C@@H](C(=O)N2CCC[C@H]2C(=O)N[C@@H](CCNC(=O)[C@@H](N)CCCCNC(=O)CC[C@H](NC(=O)[C@H](CCCNC(=N)N)NC(=O)[C@@H]2CCCN2C(=O)[C@H](C)NC(=O)[C@H](CC(N)=O)NC(=O)[C@H](CCC(N)=O)NC(=O)[C@H](Cc2ccccc2)NC(=O)[C@@H](Cc2ccc(OC)cc2)NC(=O)Cc2ccccc2)C(N)=O)C(=O)NCC(N)=O)NC(=O)[C@H](CC(N)=O)NC(=O)[C@H](CCC(N)=O)NC1=O` [Compound 18] (I: H-CFIQNCP[Dab]G-NH2 / II: PhAc-[dY](Me)FQNAPR[isoGln][εLys]; disulfide I:1-I:6; amide I:8-II:C), the EC50 was 3.9 nM and the Emax stood at 49%.
Take `CC[C@H](C)[C@@H]1NC(=O)[C@H](Cc2ccccc2)NC(=O)[C@@H](N)CSSC[C@@H](C(=O)N2CCC[C@H]2C(=O)N[C@@H](CCCNCCCCCCNC(=O)CC[C@H](NC(=O)[C@H](CCCNC(=N)N)NC(=O)[C@@H]2CCCN2C(=O)[C@H](C)NC(=O)[C@H](CC(N)=O)NC(=O)[C@H](CCC(N)=O)NC(=O)[C@H](Cc2ccccc2)NC(=O)[C@@H](Cc2ccc(OC)cc2)NC(=O)C2CCCCC2)C(N)=O)C(=O)NCC(N)=O)NC(=O)[C@H](CC(N)=O)NC(=O)[C@H](CCC(N)=O)NC1=O` [Compound 19]: the Emax was 50%. Also, under setting [1], the EC50 stood at 2.5 nM.
For `CC[C@H](C)[C@@H]1NC(=O)[C@H](Cc2ccccc2)NC(=O)[C@@H](N)CSSC[C@@H](C(=O)N2CCC[C@H]2C(=O)N[C@@H](CCCNCCCCCNC(=O)CCNC(=O)CC[C@H](NC(=O)[C@H](CCCNC(=N)N)NC(=O)[C@@H]2CCCN2C(=O)[C@H](C)NC(=O)[C@H](CC(N)=O)NC(=O)[C@H](CCC(N)=O)NC(=O)[C@H](Cc2ccccc2)NC(=O)[C@@H](Cc2ccc(OC)cc2)NC(=O)Cc2ccccc2)C(N)=O)C(=O)NCC(N)=O)NC(=O)[C@H](CC(N)=O)NC(=O)[C@H](CCC(N)=O)NC1=O` [Compound 20], the half-maximal effective concentration (EC50) is 2.7 nM and the Emax was determined as 42%.
On to `CC[C@H](C)[C@@H]1NC(=O)[C@H](Cc2ccccc2)NC(=O)[C@@H](N)CSSC[C@@H](C(=O)N2CCC[C@H]2C(=O)N[C@@H](CCCNCCCCCCNC(=O)CC[C@H](NC(=O)[C@H](CCCNC(=N)N)NC(=O)[C@@H]2CCCN2C(=O)[C@H](C)NC(=O)[C@H](CC(N)=O)NC(=O)[C@H](CCC(N)=O)NC(=O)[C@H](Cc2ccccc2)NC(=O)[C@@H](Cc2ccc(OC)cc2)NC(=O)CC(C)C)C(N)=O)C(=O)NCC(N)=O)NC(=O)[C@H](CC(N)=O)NC(=O)[C@H](CCC(N)=O)NC1=O` [Compound 21], for which the Emax was 47%. Besides, under setting [1], the EC50 is 1.5 nM.
Turning to `CC[C@H](C)[C@@H]1NC(=O)[C@H](Cc2ccccc2)NC(=O)[C@@H](N)CSSC[C@@H](C(=O)N2CCC[C@H]2C(=O)N[C@@H](CCCNC(=O)[C@@H](N)CCCCNC(=O)CC[C@H](NC(=O)[C@H](CCCNC(=N)N)NC(=O)[C@@H]2CCCN2C(=O)[C@H](CCCNC(=N)N)NC(=O)[C@H](CC(N)=O)NC(=O)[C@@H](NC(=O)[C@H](Cc2ccccc2)NC(=O)[C@@H](Cc2ccc(OC)cc2)NC(=O)Cc2ccccc2)[C@@H](C)O)C(N)=O)C(=O)NCC(N)=O)NC(=O)[C@H](CC(N)=O)NC(=O)[C@H](CCC(N)=O)NC1=O` [Compound 22] (I: H-CFIQNCP[Orn]G-NH2 / II: PhAc-[dY](Me)FTNRPR[isoGln][εLys]; disulfide I:1-I:6; amide I:8-II:C), the EC50 came to 0.95 nM and the Emax came out at 29%.
Turning to `CC[C@H](C)[C@@H]1NC(=O)[C@H](Cc2ccccc2)NC(=O)[C@@H](O)CSSC[C@@H](C(=O)N2CCC[C@H]2C(=O)N[C@@H](CCCNCCCCCNC(=O)CC[C@H](NC(=O)[C@H](CCCNC(=N)N)NC(=O)[C@@H]2CCCN2C(=O)[C@H](C)NC(=O)[C@H](CC(N)=O)NC(=O)[C@H](CCC(N)=O)NC(=O)[C@H](Cc2ccccc2)NC(=O)[C@@H](Cc2ccc(OC)cc2)NC(=O)Cc2ccccc2)C(N)=O)C(=O)NCC(N)=O)NC(=O)[C@H](CC(N)=O)NC(=O)[C@H](CCC(N)=O)NC1=O` [Compound 23], the half-maximal effective concentration (EC50) came out at 1.7 nM and the Emax stood at 51%.

The term EC50 denotes the concentration at which the effect is half-maximal.
